US20110251212A1, “PIPERAZINE DERIVATIVES” (SHIONOGI & CO., LTD., priority 2007, published 2011)

How the values were obtained:
[1] = target: T1, mouse NMDA receptor (NR1 subunit and NR2B subunit co-expressed in HEK293 cells) (Mus musculus, UniProt P35438+Q01097); test: Expression of NMDA receptor and measurement of Ca ion flow in amount (HEK293 cells, Fluo-3/AM, FDSS3000); assay type: cell-based; conditions: Ca ion flow in induced with glutamic acid 20 μM/glycine 2 μM, read-out: Ca2+ 1050
T1 construct: expressed in transfected cells; host or cells: HEK293 cells, transient, pcDNA 3.1 plasmids
Description: Test Example 2 Expression of NMDA receptor and measurement of Ca ion flow in amount
A complementary DNA (cDNA) of a mouse NMDA receptor subunit was transiently introduced into HEK293 cells and, after one day from introduction, change in a glutamic acid/glycine-induced intracellular Ca amount was measured using a Ca ion reactive fluorescent dye.
HEK293 cells were cultured and passaged using a modified Dulbecco's Eagle medium (DMEM, low glucose).
20,000/well of HEK293 cells were seeded on a 96-well plate, a NR1 subunit and a NR2B subunit of a NMDA receptor incorporated into pcDNA 3.1 plasmid were transiently introduced into cells, and co-expression of subunits was performed. An introduction amount of a DNA was such that the NR1 subunit was 0.025 μg, and the NR2B subunit was 0.075 μg per well. For cells after introduction, cell death was inhibited using 50 μM of a NMDA receptor antagonist MK-801.
For adjusting a test compound and washing cells, Krebs Ringer Hepes buffer (KRH, Ca: 5 mM) was used.
One day after introduction, the NMDA receptor antagonist MK-801 was washed off using the KRH buffer, and a Ca ion indicative fluorescent dye Fluo-3/AM was made to be taken into cells. Flow in of a Ca ion was induced with glutamic acid 20 μM/glycine 2 μM. Change in a fluorescence amount due to intracellular Ca ion flow in was measured at excitation 480 nm using a fluorescence imaging system FDSS3000.
From a measured value of the test compound, a Ca ion flow in inhibitory rate (%) was obtained by the following equation, and a dose at which flow in is 50% inhibited (IC50) was calculated.
Ca ion flow in inhibitory rate(%)=100−[(fluorescence amount in presence of test compound−background fluorescence amount)/(total fluorescence amount[…]background fluorescence amount)]×100

[2] = target: T2, NMDA Receptor (NR1/NR2B Receptor) (Rattus norvegicus, UniProt P35439+Q00960); test: Experiment of binding to NMDA receptor (NR1/NR2B receptor), [3H]-Ifenprodil competition, rat cerebral cortex membrane; conditions: [3H]-Ifenprodil 5 nM, GBR-12909 3 μM, ice temperature 120 minutes
T2 construct: this was used as a membrane specimen in an experiment; from tissue; host or cells: rat cerebral cortex membranes
Description: Using Ifenprodil which is a NR1/NR2B subtype receptor-specific antagonist as a ligand, an experiment of receptor competition with a test compound was performed.
A male Slc:Wistar rat was used as an animal, a decapitated brain was isolated, and cerebral cortex was fractionated. The cerebral cortex was homogenized with a 20-fold amount of an ice-cooled 50 mM Tris/HCl buffer (pH 7.4), and centrifuged at 4° C. and 27,500×g for 10 minutes. The resulting precipitate was suspended in the same buffer, and the suspension was centrifuged again. This procedure was repeated three times, and the resulting precipitate was suspended in a buffer, and stored at −80° C. Immediately before an experiment, the frozen suspension was thawed at room temperature, and centrifuged at 4° C. and 27,500×g for 10 minutes, and the resulting precipitate was suspended in a buffer. The suspension was further diluted 10-fold with a buffer, and this was used as a membrane specimen in an experiment.
In a binding experiment, to 470 μl of the membrane specimen were added 10 μl of different concentrations of a test compound, 10 μl of a labeled ligand [3H]-Ifenprodil and 10 μl of GBR-12909, and this was incubated at an ice temperature for 120 minutes. A concentration of [3H]-Ifenprodil of the labeled ligand was finally 5 nM, and a concentration of GBR-12909 was finally 3 μM. For measuring a total binding amount, DMSO as a solvent was used and, for measuring a non-specific binding amount, 100 μM of Ifenprodil was used. In addition, GBR-12909 was added in order to block binding of [3H]-Ifenprodil to a non-polyamine-sensitive site. After incubation, a bound body and a free body were separated using a Whatman GF/C filter (manufactured by Whatman), and the filter was washed with 2.5 ml of an ice-cooled buffer four times. The filter was immersed in a liquid scintillation (Clear-sol I, manufactured by Nacalai tesque) in a vial bottle, and radioactivity (dpm) was measured with a liquid scintillation counter. From a measured value, a binding inhibition rate (%) was obtained by the following equation, and a dose at which binding is inhibited 50% (IC50) was calculated. A formula of GBR-12909 (Vanoxerine) is shown below.
Binding inhibition rate(%)=100−[(binding amount in presence of test compound−non-specific amount)/(total binding amount−non-specific binding amount)]×100

T1 sequence (Q01097 27-1482, other chains not shown): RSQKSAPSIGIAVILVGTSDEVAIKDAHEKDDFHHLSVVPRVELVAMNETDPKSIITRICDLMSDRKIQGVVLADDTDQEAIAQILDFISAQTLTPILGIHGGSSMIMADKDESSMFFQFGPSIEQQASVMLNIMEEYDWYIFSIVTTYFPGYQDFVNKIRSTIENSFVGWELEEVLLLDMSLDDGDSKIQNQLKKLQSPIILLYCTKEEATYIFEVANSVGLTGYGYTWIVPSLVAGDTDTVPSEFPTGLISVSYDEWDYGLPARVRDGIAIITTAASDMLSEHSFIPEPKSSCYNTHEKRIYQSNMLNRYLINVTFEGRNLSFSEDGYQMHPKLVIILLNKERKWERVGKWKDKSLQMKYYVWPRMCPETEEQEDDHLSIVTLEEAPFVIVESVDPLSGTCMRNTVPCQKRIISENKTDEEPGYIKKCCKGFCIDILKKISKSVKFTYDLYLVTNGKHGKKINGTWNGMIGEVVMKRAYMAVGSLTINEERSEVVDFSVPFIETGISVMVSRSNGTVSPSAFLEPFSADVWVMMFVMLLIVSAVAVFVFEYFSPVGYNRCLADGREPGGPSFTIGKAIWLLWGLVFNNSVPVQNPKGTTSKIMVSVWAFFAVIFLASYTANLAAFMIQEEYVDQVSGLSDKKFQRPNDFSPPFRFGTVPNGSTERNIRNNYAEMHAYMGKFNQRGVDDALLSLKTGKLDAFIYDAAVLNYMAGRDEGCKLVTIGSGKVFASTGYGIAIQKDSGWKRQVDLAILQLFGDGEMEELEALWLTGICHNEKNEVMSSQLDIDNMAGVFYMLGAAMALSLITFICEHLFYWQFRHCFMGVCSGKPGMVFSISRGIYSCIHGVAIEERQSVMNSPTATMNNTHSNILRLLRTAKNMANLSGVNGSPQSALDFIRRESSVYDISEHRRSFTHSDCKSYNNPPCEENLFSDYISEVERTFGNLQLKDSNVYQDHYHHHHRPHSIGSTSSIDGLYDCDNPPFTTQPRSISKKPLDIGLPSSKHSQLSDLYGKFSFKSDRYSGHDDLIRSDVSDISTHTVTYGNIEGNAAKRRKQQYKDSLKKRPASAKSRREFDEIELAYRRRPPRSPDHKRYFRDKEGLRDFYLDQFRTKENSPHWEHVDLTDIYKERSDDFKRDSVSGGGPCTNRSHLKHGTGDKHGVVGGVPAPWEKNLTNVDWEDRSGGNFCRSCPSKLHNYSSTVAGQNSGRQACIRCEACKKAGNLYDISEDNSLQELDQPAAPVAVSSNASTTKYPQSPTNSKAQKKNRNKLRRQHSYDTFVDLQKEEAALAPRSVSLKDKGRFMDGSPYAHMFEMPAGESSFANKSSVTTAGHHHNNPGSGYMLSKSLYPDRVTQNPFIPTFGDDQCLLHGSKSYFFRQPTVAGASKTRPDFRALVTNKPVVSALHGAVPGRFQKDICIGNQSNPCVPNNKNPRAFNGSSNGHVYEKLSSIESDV
T2 sequence (Q00960 27-1482, other chains not shown): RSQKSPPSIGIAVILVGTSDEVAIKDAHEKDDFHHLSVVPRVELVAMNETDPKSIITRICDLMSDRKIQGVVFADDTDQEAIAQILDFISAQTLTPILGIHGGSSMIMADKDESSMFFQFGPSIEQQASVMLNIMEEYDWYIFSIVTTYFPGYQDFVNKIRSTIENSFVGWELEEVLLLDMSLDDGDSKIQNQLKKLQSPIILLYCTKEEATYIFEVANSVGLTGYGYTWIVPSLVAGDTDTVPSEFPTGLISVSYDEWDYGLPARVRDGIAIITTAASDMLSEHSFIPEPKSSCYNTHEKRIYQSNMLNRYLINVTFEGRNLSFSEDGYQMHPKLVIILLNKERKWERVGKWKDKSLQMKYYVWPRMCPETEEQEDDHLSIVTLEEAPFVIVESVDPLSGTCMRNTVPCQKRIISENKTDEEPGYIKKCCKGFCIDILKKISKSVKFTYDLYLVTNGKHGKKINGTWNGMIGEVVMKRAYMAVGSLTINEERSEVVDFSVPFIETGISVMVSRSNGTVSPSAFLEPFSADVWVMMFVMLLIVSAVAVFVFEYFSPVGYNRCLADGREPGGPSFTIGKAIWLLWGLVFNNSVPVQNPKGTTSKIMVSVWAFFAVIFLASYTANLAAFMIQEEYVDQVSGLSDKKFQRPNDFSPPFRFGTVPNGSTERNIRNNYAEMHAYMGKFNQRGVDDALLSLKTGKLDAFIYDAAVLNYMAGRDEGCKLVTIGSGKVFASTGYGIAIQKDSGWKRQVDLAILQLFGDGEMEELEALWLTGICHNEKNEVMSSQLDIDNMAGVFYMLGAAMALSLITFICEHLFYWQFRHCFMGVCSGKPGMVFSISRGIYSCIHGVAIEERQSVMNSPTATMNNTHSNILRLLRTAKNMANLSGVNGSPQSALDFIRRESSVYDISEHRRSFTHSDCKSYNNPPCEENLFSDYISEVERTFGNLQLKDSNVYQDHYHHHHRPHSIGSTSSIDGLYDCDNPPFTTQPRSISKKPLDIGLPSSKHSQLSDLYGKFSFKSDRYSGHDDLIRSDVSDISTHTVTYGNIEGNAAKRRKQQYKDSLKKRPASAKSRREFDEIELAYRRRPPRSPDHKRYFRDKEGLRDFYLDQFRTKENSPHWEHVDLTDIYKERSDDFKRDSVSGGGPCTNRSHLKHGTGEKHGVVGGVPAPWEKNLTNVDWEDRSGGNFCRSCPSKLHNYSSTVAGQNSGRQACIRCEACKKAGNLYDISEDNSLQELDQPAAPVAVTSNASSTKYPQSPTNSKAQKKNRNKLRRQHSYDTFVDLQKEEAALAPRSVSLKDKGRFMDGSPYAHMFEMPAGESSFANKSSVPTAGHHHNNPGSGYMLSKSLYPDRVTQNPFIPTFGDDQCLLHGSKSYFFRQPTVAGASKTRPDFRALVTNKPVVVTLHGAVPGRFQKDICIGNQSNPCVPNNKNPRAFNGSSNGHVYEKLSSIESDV

Compound | IC50 [1] [nM] | melting point [°C] | IC50 [2] [µM]
Cc1cc(N2CCN(C(=O)C(=O)Nc3ccc4[nH]c(=O)oc4c3)[C@H](C)C2)ccc1Cl [Compound I-40] | 14 | 123 to 124 | 0.04
C[C@@H]1CN(c2ccc(Cl)c(F)c2)CCN1C(=O)CNc1ccc2[nH]c(=O)oc2c1 [Compound I-6] | 20 | 224 to 226 | 0.026
O=C(CN1CCN(c2ccc(Cl)cc2)CC1=O)Nc1ccc2[nH]c(=O)oc2c1 [Compound I-67] | – | 223 to 225 | –
CC(Nc1ccc2[nH]c(=O)oc2c1)C(=O)N1CCN(c2ccc(Cl)c(F)c2)CC1 (stereo not drawn) [Compound I-4] | – | 223 to 225 | –
O=C(CNc1ccc2[nH]c(=O)oc2c1)N1CCN(c2ccc(Cl)c(F)c2)CC1 [Compound I-1] | 49 | 136 to 138 | 0.149
COc1c(F)cc(N2CCN(C(=O)CNc3ccc4[nH]c(=O)oc4c3)CC2)cc1F [Compound I-7] | 89 | 194 to 196 | –
O=C(CNc1ccc2[nH]c(=O)oc2c1)N1CCN(c2ccc(F)c(Cl)c2)CC1 [Compound I-3] | – | 130 to 132 | –
Cc1cc(N2CCN(C(=O)CNc3ccc4[nH]c(=O)oc4c3)C[C@H]2C)ccc1Cl [Compound I-63] | – | 112 to 114 | –
